Experimental data from patent EP0090603A2, “Antibacterial compounds” (BEECHAM GROUP PLC, priority 1982, dated 1983).
Converted amounts (≈) assume the structure as drawn.

Columns and labels:
M. suipneumoniae HK(2) = experiment: MIC against Mycoplasma, in vitro agar dilution; format: cell-based; conditions: Mesomycoplasma hyopneumoniae, 144 h; Friis broth solidified with 0.9% agarose, 10^3 to 10^5 C.F.U., 6 days at 37°C; read-out: MIC's against M. suipneumoniae HK(2)
Strep. dysgalactiae SPD1 = experiment: MIC against Veterinary Bacteria, in vitro agar dilution; conditions: Streptococcus dysgalactiae, SPD1, 18 h, read-out: MIC's against Strep. dysgalactiae SPD1
Description: (§1) The activity of the compounds of the Examples against various veterinarily important bacteria, was assayed in vitro using two-fold serial dilutions in Diagnostic Sensitivity Test Agar inoculated with 10^4 organisms.

Strep. uberis SPU1 = experiment: as above; conditions: Streptococcus uberis, SPU1, 18 h, read-out: MIC's against Strep. uberis SPU1
Description: as §1

M. bovis NCTC 10131 = experiment: microbe, parasite or virus in culture; format: cell-based; conditions: NCTC10131, 144 h, read-out: MIC's against M. bovis NCTC 10131
[1] = tested on: M. hyosynoviae ATCC 25591; experiment: MIC against Mycoplasma, in vitro agar dilution; format: cell-based; conditions: 144 h; Friis broth solidified with 0.9% agarose, 10^3 to 10^5 C.F.U., 6 days at 37°C; read-out: MIC's against M. hyosynoviae ATCC 25591
[2] = tested on: Erysipelothrix rhusiopathiae NCTC 8163; experiment: MIC against Veterinary Bacteria, in vitro agar dilution; conditions: Erysipelothrix rhusiopathiae, NCTC8163, 18 h, read-out: MIC's against Erysipelothrix rhusiopathiae NCTC 8163
Description: as §1

M. suipneumoniae MS 16 = experiment: MIC against Mycoplasma, in vitro agar dilution; format: cell-based; conditions: Mesomycoplasma hyopneumoniae, MS16, 144 h; Friis broth solidified with 0.9% agarose, 10^3 to 10^5 C.F.U., 6 days at 37°C; read-out: MIC's against M. suipneumoniae MS 16
M. suipneumoniae NB12 = experiment: MIC against Mycoplasma, in vitro agar dilution; format: cell-based; conditions: Mesomycoplasma hyopneumoniae, NB12, 144 h; Friis broth solidified with 0.9% agarose, 10^3 to 10^5 C.F.U., 6 days at 37°C; read-out: MIC's against M. suipneumoniae NB12
[3] = tested on: M. bovigenitalium ATCC 14173; experiment: MIC against Mycoplasma, in vitro agar dilution; format: cell-based; conditions: 144 h; Friis broth solidified with 0.9% agarose, 10^3 to 10^5 C.F.U., 6 days at 37°C; read-out: MIC's against M. bovigenitalium ATCC 14173
Past. multocida PA1 = experiment: MIC against Veterinary Bacteria, in vitro agar dilution; conditions: Pasteurella multocida, PA1, 18 h, read-out: MIC's against Past. multocida PA1
Description: as §1

M. suipneumoniae TAM 6N = experiment: MIC against Mycoplasma, in vitro agar dilution; format: cell-based; conditions: Mesomycoplasma hyopneumoniae, TAM6N, 144 h; Friis broth solidified with 0.9% agarose, 10^3 to 10^5 C.F.U., 6 days at 37°C; read-out: MIC's against M. suipneumoniae TAM 6N
M. suipneumoniae JF 435 = experiment: MIC against Mycoplasma, in vitro agar dilution; format: cell-based; conditions: Mesomycoplasma hyopneumoniae, JF435, 144 h; Friis broth solidified with 0.9% agarose, 10^3 to 10^5 C.F.U., 6 days at 37°C; read-out: MIC's against M. suipneumoniae JF 435
[4] = tested on: M. suipneumoniae J2206/183^b; experiment: MIC against Mycoplasma, in vitro agar dilution; format: cell-based; conditions: Mesomycoplasma hyopneumoniae, 144 h; Friis broth solidified with 0.9% agarose, 10^3 to 10^5 C.F.U., 6 days at 37°C; read-out: MIC's against M. suipneumoniae J2206/183^b

CC(CC1OCC(CC2OC2C(C)C(C)O)C(O)C1O)=C(C)C(=O)O [Example 4, Sodium 4-[5S-(2S, 35-epoxy-5S-hydroxy-4S-methylhexyl)-3R,4R-dihydroxytetrahydropyran-2S-yl]-2,3-dimethylbut-2(E)-enoate]
MIC (M. suipneumoniae HK(2)): 0.25 mg/L
MIC (Strep. dysgalactiae SPD1): 1.25 mg/L
MIC (Strep. uberis SPU1): 0.156 mg/L
MIC (M. bovis NCTC 10131): 0.025 mg/L
MIC [1]: 0.25 mg/L
MIC [2]: 80 mg/L
MIC (M. suipneumoniae MS 16): 0.1 mg/L
MIC (M. suipneumoniae NB12): 0.25 mg/L
MIC [3]: 0.05 mg/L
MIC (Past. multocida PA1): 5 mg/L
MIC (M. suipneumoniae TAM 6N): 0.25 mg/L
MIC (M. suipneumoniae JF 435): 0.25 mg/L
MIC [4]: 0.25 mg/L

CCOC(=O)C(C)=C(C)CC1OCC(CC2OC2C(C)C(C)O)C(O)C1O [Example 1, Ethyl 4-[5S-(2S,3S-epoxy-5S-hydroxy-4S-methylhexyl)-3R,4R-dihydroxytetrahydropyran-2S-yl]-2,3-dimethylbut-2(E)-enoate]
MIC (M. suipneumoniae HK(2)): 1 mg/L (≈ 2.59 µM)
MIC (Strep. dysgalactiae SPD1): 5 mg/L (≈ 12.9 µM)
MIC (Strep. uberis SPU1): 1.25 mg/L (≈ 3.23 µM)
MIC (M. bovis NCTC 10131): 0.05 mg/L (≈ 0.129 µM)
MIC [1]: 1 mg/L (≈ 2.59 µM)
MIC [2]: 80 mg/L (≈ 207 µM)
MIC (M. suipneumoniae MS 16): 0.5 mg/L (≈ 1.29 µM)
MIC (M. suipneumoniae NB12): 1 mg/L (≈ 2.59 µM)
MIC [3]: 0.05 mg/L (≈ 0.129 µM)
MIC (Past. multocida PA1): 2.5 mg/L (≈ 6.47 µM)
MIC (M. suipneumoniae TAM 6N): 2.5 mg/L (≈ 6.47 µM)
MIC (M. suipneumoniae JF 435): 1 mg/L (≈ 2.59 µM)
MIC [4]: 2.5 mg/L (≈ 6.47 µM)

COC(=O)C(C)=C(C)CC1OCC(CC2OC2C(C)C(C)O)C(O)C1O [Example 2, Methyl 4-[5S-(2S,3S-epoxy-5S-hydroxy-4S-methylhexyl)-3R,4R-dihydroxytetrahydropyran-2S-yl]-2,3-dimethylbut-2(E)-enoate]
MIC (M. suipneumoniae HK(2)): 10 mg/L (≈ 26.8 µM)
MIC (Strep. dysgalactiae SPD1): 40 mg/L (≈ 107 µM)
MIC (Strep. uberis SPU1): 20 mg/L (≈ 53.7 µM)
MIC (M. bovis NCTC 10131): 0.25 mg/L (≈ 0.671 µM)
MIC [1]: 5 mg/L (≈ 13.4 µM)
MIC [2]: > 80 mg/L
MIC (M. suipneumoniae MS 16): 5 mg/L (≈ 13.4 µM)
MIC (M. suipneumoniae NB12): 5 mg/L (≈ 13.4 µM)
MIC [3]: 0.5 mg/L (≈ 1.34 µM)
MIC (Past. multocida PA1): 10 mg/L (≈ 26.8 µM)
MIC (M. suipneumoniae TAM 6N): 10 mg/L (≈ 26.8 µM)
MIC (M. suipneumoniae JF 435): 10 mg/L (≈ 26.8 µM)
MIC [4]: 5 mg/L (≈ 13.4 µM)

CC(CC1OCC(CC2OC2C(C)C(C)O)C(O)C1O)=C(C)C(=O)OCc1cccc([N+](=O)[O-])c1 [Example 3, m-Nitrobenzyl 4-[5S-(2S,3S-epoxy-5S-hydroxy-4S-methylhexyl)-3R,4R-dihydroxytetrahydropyran-2S-yl]-2,3-di-methylbut-2(E)-enoate]
MIC (M. suipneumoniae HK(2)): 0.1 mg/L (≈ 0.203 µM)
MIC (Strep. dysgalactiae SPD1): 0.312 mg/L (≈ 0.632 µM)
MIC (Strep. uberis SPU1): 0.156 mg/L (≈ 0.316 µM)
MIC (M. bovis NCTC 10131): 0.025 mg/L (≈ 0.0507 µM)
MIC [1]: 0.25 mg/L (≈ 0.507 µM)
MIC [2]: 40 mg/L (≈ 81 µM)
MIC (M. suipneumoniae MS 16): 0.025 mg/L (≈ 0.0507 µM)
MIC (M. suipneumoniae NB12): 0.05 mg/L (≈ 0.101 µM)
MIC [3]: 0.025 mg/L (≈ 0.0507 µM)
MIC (Past. multocida PA1): 2.5 mg/L (≈ 5.07 µM)
MIC (M. suipneumoniae TAM 6N): 0.1 mg/L (≈ 0.203 µM)
MIC (M. suipneumoniae JF 435): 0.1 mg/L (≈ 0.203 µM)
MIC [4]: 0.1 mg/L (≈ 0.203 µM)
